Measurements reported in patent US20240382472A1, “NEUTROPHIL ELASTASE INHIBITORS FOR USE IN THE TREATMENT OF FIBROSIS” (MEREO BIOPHARMA 4 LIMITED, priority 2021, published 2024).
Values joined by “and” are separate entries in the source; they are usually repeats but may differ in a detail not shown here. Equal entries are not always repeated.

Legend:
[1] = tested on: desmosine (DES) and isodesmosine (IDES); test: Phase 1b study: plasma desmosine and isodesmosine by isotope-dilution LC/MS; type: in vivo, human
Method: (§1) Patients age ≥18 years with BOS and chronic GVHD after HCT were recruited to the National Cancer Institute protocol (NCT02669251). This phase 1 study had 2 parts: 8-week intra-patient dose escalation period, followed by a continuation period that allowed for up to 6 months of treatment. Alvelestat was given orally starting at 60 mg twice daily, increased every 2 weeks to 120 mg twice daily, 180 mg twice daily, and finally 240 mg twice daily.
(§2) Blood biomarkers for neutrophil elastase activity, desmosine, isodesmosine, PRO-C3 and PRO-C6, were collected at baseline (pre-treatment with alvelestat) and after every 2 weeks during alvelestat dose escalations i.e. after 60 mg bid, 120 mg bid, 180 mg bid and 240 mg bid.
DES and IDES levels in the plasma were measured by an isotope-dilution, liquid-chromatography/mass spectrometry method (Huang et al Thorax 2012; 67:502-508).[12] [13]
Results are presented as Mean and Standard Error Mean (SEM). Samples were taken at baseline and at the end of each dose-escalation stage.

PRO-C3 = test: Phase 1b study: collagen type 3 synthesis biomarker PRO-C3 (and PRO-C3:C3M ratio) by competitive ELISA; type: in vivo, human
Method: as §1, §2
(§3) Biomarkers of novel epitopes (neoepitopes) related to collagen turnover and fibrosis (PRO-C6, PRO-C3, C3M, and C6M) were measured by competitive Enzyme Linked Immunosorbant Assay (ELISA) (Nordic Biosciences, Denmark).[1]

PRO-C6 = test: Phase 1b study: collagen type 6 synthesis biomarker PRO-C6 by competitive ELISA; type: in vivo, human; conditions: above ULN at baseline; during alvelestat treatment; FIG. 3B
Method: as §1, §2, §3

[2] = Phase 1b study in patients with BOS after HCT: tolerability and clinical outcome; type: in vivo
Method: as §1

C1M (collagen Type 1) = test: 12-week study NCT03636347: collagen degradation biomarker C1M; type: in vivo, human; conditions: alvelestat at week 12, three treatment arms pooled, N = 32; alpha-1 anti-trypsin deficient lung disease; ANCOVA
Method: (§4) An aspect of NCT03636347 was to investigate the effect of alvelestat on collagen biomarkers in patients with PiZZ, null or rare variant phenotype/genotype alpha-1 anti-trypsin deficient lung disease. % Change from baseline in a number collagen degradation biomarkers were measured over a 12 week period in alvelestat and placebo arms. Inclusion criteria: patients (18 Years to 75 Years) with a confirmed diagnosis of alpha-1-anti-trypsin deficiency and a PiZZ, null or other rare geno/phenotype and serum […] levels of less than 11 uM; FEV1≥20% predicted; Computerised tomography (CT) scan evidence of emphysema; and non-smokers. Alvelestat was given orally at 120 mg twice daily, 240 mg twice daily, or dose escalation up to 240 mg twice daily, so there were three alvelestat treatment arms. Collagen degradation biomarkers […] (collagen Type 1), […] (collagen Type 6), […] (collagen Type 4) C3M (collagen Type 3) were collected at baseline (e.g. before treatment with alvelestat or placebo) and after 12 weeks following treatment with alvelestat or placebo. Biomarkers related to C3M and […] were measured by competitive Enzyme Linked Immunosorbant Assay (ELISA) (Nordic Biosciences, Denmark).[1] Biomarkers related to […] and […] were measured with Nordic Bioscience assays [Chest. […] C1M, […] concentrations were measured in ng/mL. […]

C6M (collagen Type 6) = test: 12-week study NCT03636347: collagen degradation biomarker C6M; type: in vivo, human; conditions: alvelestat at week 12, three treatment arms pooled, N = 36; ANCOVA
Method: as §4

C4Ma3 (collagen Type 4) = test: 12-week study NCT03636347: collagen degradation biomarker C4Ma3; type: in vivo, human; conditions: alvelestat at week 12, three treatment arms pooled, N = 17; ANCOVA
Method: as §4

C3M (collagen Type 3) = test: 12-week study NCT03636347: collagen degradation biomarker C3M; type: in vivo, human; conditions: alvelestat at week 12, three treatment arms pooled, N = 34; ANCOVA
Method: as §4

Neutrophil Elastase (NE) [3] = target: T1, Neutrophil Elastase (NE) (Homo sapiens, UniProt P08246); conditions: from WO2021/053058, Examples 1-5; cited from earlier work
T1 sequence (P08246 30-267): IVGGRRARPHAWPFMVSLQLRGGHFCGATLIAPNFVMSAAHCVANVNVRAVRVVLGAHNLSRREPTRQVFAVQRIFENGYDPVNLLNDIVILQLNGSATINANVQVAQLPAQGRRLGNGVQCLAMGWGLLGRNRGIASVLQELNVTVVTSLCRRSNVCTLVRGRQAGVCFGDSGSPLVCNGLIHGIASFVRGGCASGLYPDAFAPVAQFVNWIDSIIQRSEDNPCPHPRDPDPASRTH

[4] = from WO2021/053058, Examples 1-5; cited from earlier work
Neutrophil Elastase (NE) [5] = target: T1, Neutrophil Elastase (NE); test: Phase 1b study: ex-vivo zymosan-stimulated neutrophil elastase activity in whole blood; parameters: induce degranulation of white blood cells including neutrophils, releasing an excess of free active NE into the plasma; from tissue; host or cells: whole blood of patients (neutrophils degranulated with zymosan); plasma measured with ProteaseTag Active Neutrophil Elastase Immunoassay (ProAxsis Ltd); conditions: FIG. 2
Method: Patients age ≥18 years with BOS and chronic GVHD after HCT were recruited to the National Cancer Institute protocol (NCT02669251). […] Alvelestat was given orally starting at 60 mg twice daily, increased every 2 weeks to 120 mg twice daily, 180 mg twice daily, and finally 240 mg twice daily.
as §2
Ex-vivo zymosan-stimulated Neutrophil Elastase (NE) activity was measured by the following assay: zymosan was added to whole blood to induce degranulation of white blood cells including neutrophils, releasing an excess of free active NE into the plasma. The blood was centrifuged and plasma removed. The level of NE in the plasma sample was measured by the ProteaseTag® Active Neutrophil Elastase Immunoassay (ProAxsis Ltd, Belfast, Northern Ireland).

Cc1c(-c2ccnn2C)cc(C(=O)NCc2ccc(S(C)(=O)=O)cn2)c(=O)n1-c1cccc(C(F)(F)F)c1 [alvelestat, N-{[5-(methanesulfonyl)pyridin-2-yl]methyl}-6-methyl-5-(1-methyl-1H-pyrazol-5-yl)-2-oxo-1-[3-(trifluoromethyl)phenyl]-1,2-dihydropyridine-3-carboxamide]
DES and IDES plasma level, mean (SEM) ([1]; patients with BOS after HCT, N=7, week 8 of dose escalation 60 to 240 mg twice daily oral, baseline 0.464): 0.380 (SEM 0.0419) ng/ml
DES and IDES mean within subject % change from baseline (CFB) ([1]; week 8 of dose escalation, SEM 6.794, FIG. 1): −16.2%
Collagen synthesis as measured by PRO-C3 (PRO-C3; above ULN at baseline, during alvelestat treatment, FIG. 3A): declined
Ratio of PRO-C3 to C3M (PRO-C3; blood samples during the study, n=7, FIG. 4): decrease
Collagen synthesis as measured by PRO-C6 (PRO-C6): declined
Tolerability of dose escalation ([2]; all 7 patients, up to maximum dose 240 mg twice daily): able to tolerate dose escalation
Lung disease outcome (FEV1% predicted at end of treatment no worse than 10% below baseline level) ([2]; the 6 patients with biomarker suppression): improved or stable lung disease
Patients with consistent suppressive effect on biomarkers of elastase activity and collagen turnover ([2]; treated patients, phase 1b): 6 of 7
C1M change from baseline (%), LS Means (SE) (C1M (collagen Type 1)): −0.6% and −0.6 (49.42) %
C6M change from baseline (%), LS Means (SE) (C6M (collagen Type 6)): 1.1% and 1.1 (5.52) %
C4Ma3 change from baseline (%), LS Means (SE) (C4Ma3 (collagen Type 4)): −6.6 (8.96) %
C3M change from baseline (%), LS Means (SE) (C3M (collagen Type 3)): −1.7 (4.08) %
Inhibition of neutrophil elastase (NE) (Neutrophil Elastase (NE) [3]): potent and specific inhibitor
Effect against GVHD [4]: protective effect
Ex vivo zymosan stimulated elastase activity, course (Neutrophil Elastase (NE) [5]; over the dose escalation period, N=7): progressive decrease
Suppression of ex vivo zymosan stimulated elastase activity (Neutrophil Elastase (NE) [5]; some subjects, dose escalation period): 100%
